pIC50: −log10 of the molar value. Values belong to the molecule of their own block, whether it stands above or below them.
How the values were obtained:
Assay type in all cases: cell-based, human
[1] = tested on: cardiac infarct organoids; assay: Calcium transient imaging with two-photon light sheet microscope (beating synchronization)
From the text: To functionally interpret the transcriptomic shifts in cardiomyocyte calcium handling and arrhythmogenesis, a two-photon, laser-scanning, light sheet (2PLS) microscope was used that allowed for deeper tissue penetration with high-speed imaging (50 frames/sec) and orthogonal selected plane (about 4 μm thickness) illumination.^27 Given its strength for in situ imaging, the 2PLS microscope allowed for the visualization of calcium handling in the interior regions of 3D cardiac microtissues to study calcium handling and arrhythmogenicity across the organoids. Organoids were fabricated with GCaMP6-labeled hiPSC-CMs and calcium transient amplitudes (ΔF/F0) were measured from “cell-sized” regions of interest (ROIs) (representing individual cardiomyocytes) inside organoids. […] In particular, imaging and calcium transient profiles of synchronized edge and interior cardiomyocyte ROIs from human induced pluripotent stem cell-derived-cardiomyocyte (hiPSC-CM) spheroids were cultured in the cardiac organoid infarction protocol.

[2] = tested on: control cardiac organoids; assay: Immunofluorescent staining of organoid sections (vimentin), control organoids; conditions: 48 hrs of exposure
Protocol: Freshly collected organoids were flash frozen in Tissue-Tek OCT compound (Sakura, Torrance, Calif.). Embedded spheroids were cryosectioned into 7 μm thickness layers onto glass slides for immunofluorescence staining. The sections were fixed with pre-cooled acetone (−20° C.) for 10 min. After washing (2 times at 5 min) in PBS with 0.1% Triton X-100 (PBST) (Sigma), blocking buffer was made with 10% serum corresponding to host species of secondary antibody in PBST and added to sections for 1 hr at room temperature. Sections were incubated with primary antibody diluted in PBST (1:200) overnight at 4° C. or 2 hrs at room temperature: mouse anti-alpha smooth muscle actin (A5228, Sigma), mouse anti-alpha sarcomeric actinin (ab9465, Abcam), rabbit anti-collagen type I (ab34710, Abcam), rabbit anti-vimentin (ab92547, Abcam), rabbit anti-von Willebrand factor (ab6994, Abcam). After washing in PBST (2 times at 5 min), sections were incubated with complement secondary antibodies or conjugated primary antibodies diluted in PBST for 1 hr at room temperature: Alexa Fluor 488 phalloidin (A12379, Thermo), goat anti-mouse Alexa Fluor 546 (A1103, Thermo), goat anti-rabbit Alexa Fluor 647 (111-605-144, Jackson ImmunoResearch, West Grove, Pa.). […] Vimentin radial density was calculated using the Radial Profile ImageJ plugin and normalized to radius equal to 1. […]

[3] = tested on: hiPSC-CMs; assay: 2D hiPSC-CM culture with in vitro infarction protocol and DOX; conditions: hypoxic culture (1%) with 1 μM NE 2 days prior to 2 days DOX treatment
From the text: As a control, we performed 2D studies using hiPSC-CMs with DOX to evaluate the combined effects of an in vitro infarction protocol and DOX on hiPSC-CMs. […] Nearly 100% of cells death was found for hiPSC-CMs after 4 days of the same hypoxic culture using hiPSC-CM media with galactose but no glucose, which has been attributed to the lack of glucose in the hiPSC-CM media. In addition, extended culture of 2D hiPSC-CMs in organoid media to mimic prolonged organoid infarction protocol led to minimal and irregular hiPSC-CM contractile behavior accompanied with the reduction of αSA+ cells. In contrast to the inherent difficulties of using 2D hiPSC-CM culture systems to model post-MI responses, human infarct organoids provide a robust, biomimetic […] tissue-level context to evaluate the effects of DOX on the post-MI cardiac tissues.

[4] = tested on: cardiac infarct organoids; assay: Immunofluorescent staining of organoid sections (vimentin, alpha sarcomeric actinin, αSMA, collagen), infarct organoids
Protocol: Freshly collected organoids were flash frozen in Tissue-Tek OCT compound (Sakura, Torrance, Calif.). Embedded spheroids were cryosectioned into 7 μm thickness layers onto glass slides for immunofluorescence staining. The sections were fixed with pre-cooled acetone (−20° C.) for 10 min. After washing (2 times at 5 min) in PBS with 0.1% Triton X-100 (PBST) (Sigma), blocking buffer was made with 10% serum corresponding to host species of secondary antibody in PBST and added to sections for 1 hr at room temperature. Sections were incubated with primary antibody diluted in PBST (1:200) overnight at 4° C. or 2 hrs at room temperature: mouse anti-alpha smooth muscle actin (A5228, Sigma), mouse anti-alpha sarcomeric actinin (ab9465, Abcam), rabbit anti-collagen type I (ab34710, Abcam), rabbit anti-vimentin (ab92547, Abcam), rabbit anti-von Willebrand factor (ab6994, Abcam). After washing in PBST (2 times at 5 min), sections were incubated with complement secondary antibodies or conjugated primary antibodies diluted in PBST for 1 hr at room temperature: Alexa Fluor 488 phalloidin (A12379, Thermo), goat anti-mouse Alexa Fluor 546 (A1103, Thermo), goat anti-rabbit Alexa Fluor 647 (111-605-144, Jackson ImmunoResearch, West Grove, Pa.). After washing in PBST (2 times at 5 min), nuclei were counterstained with DAPI (Molecular Probes/Invitrogen, Eugene, Oreg.) diluted in PBST for 15 min at room temperature. Following the final wash procedure (PBST, 2 times at 5 min), glass cover slips were added using Fluoro-Gel (Electron Microscopy Sciences, Hatfield, Pa.) and stored in 4° C. until imaging. TCS SP5 AOBS laser scanning confocal microscope (Leica Microsystems, Inc., Exton, Pa.) was for imaging. Vimentin radial density was calculated using the Radial Profile ImageJ plugin and normalized to radius equal to 1. Each analysis consisted of high resolution images at 400× total magnification of cross sections of different organoids.

[5] = tested on: control cardiac organoids; assay: Contraction analysis of beating organoids (contraction amplitude, beating), control organoids
From the text: Non-adhesive agarose hydrogel molds were used as microtissue fabrication molds made from commercial master micro-molds from Microtissues, Inc (Providence, R.I.). Working cell suspensions of each cell type were used at about 4.0×10^6 cells/ml to make organoid cell ratio mixtures of about 50% hiPSC-CMs and about 50% non-myocyte (4:2:1 ratio of FBs, HUVECs, hADSCs, respectively) and mixed with 1 volume media for a final concentration of about 2.0×10^6 cells/ml. hiPSC-CM only spheroids were fabricated using 100% hiPSC-CMs at a final concentration of about 2.0×10^6 cells/ml. Approximately 75 μl of the cell suspension was pipetted into each agarose mold. […]
(§1) Videos of spontaneously beating spheroids from each group were recorded immediately out of the incubator (to reduce temperature induced changes in beating) for each condition using a Carl Zeiss Axiovert A1 Inverted Microscope and Zen 2011 software (Zeiss, Gottingen, Germany). Threshold edge-detecting in ImageJ software (NIH—US National Institutes of Health) was used on high contrast spheroid picture series and graphed to realize beating profiles of fractional area change, from which contraction amplitude was calculated. Contraction amplitudes were calculated as the percent change in fractional area change amplitude between contraction and relaxation. Beat rate was calculated as the number of beats per second.

[6] = tested on: cardiac infarct organoids; assay: TUNEL apoptotic staining of organoid sections; conditions: 1 μM, 48 hours of exposure
Protocol: The Roche In Situ Cell Death Detection Kit (Sigma) was used to visualize apoptotic cells in frozen sections of cardiac organoids based on the Roche protocol. Briefly, cardiac organoid frozen sections were fixed with 4% paraformaldehyde in PBS for 20 min at room temperature. Following washing in PBS for 30 minutes, samples were incubated in a permeabilization solution (0.1% Triton X-100 and 0.1% sodium citrate in PBS) for 2 minutes on ice. Then 50 μl of the TUNEL reaction mixture were added to samples and incubated at 37° C. for 1 hr. After washing in PBS (2 times at 5 min), nuclei were counterstained with DAPI (Molecular Probes/Invitrogen) diluted in PBS for 15 min at ambient temperature. Following the final wash procedure (PBS, 2 times at 5 min), glass cover slips were added to the slides using Fluoro-Gel (Electron Microscopy Sciences). TCS SP5 AOBS laser scanning confocal microscope (Leica Microsystems) was used for imaging.

[7] = tested on: cardiac infarct organoids; assay: Contraction analysis of beating organoids (contraction amplitude, beat rate), infarct organoids
Protocol: For the cardiac infarction protocol, microtissues (about150 μm radius on D0) were placed in a hypoxia chamber within the incubator at about 10% O2 with 1 μM of norepinephrine (NE, A7257, Sigma) after 4 days of pre-culture. Media was changed with fresh NE every 2 days for the length of the experiment (10 days). For extended validation studies, 20 ng/ml of human recombinant transforming growth factor beta 1 (TGF-β1, ab50036, Abcam, Cambridge, UK), 10 nM of JQ1 (SML1524, Sigma), and 2 ng/ml of human recombinant vascular endothelial growth factor (VEGF, CC-4114A, Lonza) was added to the media every 2 days for infarct organoids for the length of the experiment (10 days).
as §1

[8] = tested on: cardiac infarct organoids; assay: Mechanical testing using micropipette aspiration (elastic modulus)
Protocol: A micropipette aspiration was performed in media similarly to previous studies using a custom-built fluid reservoir to generate a fixed pressure of 40 cm H2O (about 3.9 kPa) in pulled micropipette to apply the suction force on test organoids.^23,24 Validation and stability of pressure changes were confirmed using an in-line 5 kPa 2-port pressure transducer with about 1 Pa sensitivity (Honeywell, Morristown, N.J.). Micropipettes were pulled to a final inner diameter of approximately 40-60 μm. Prior to and during testing, organoids were soaked in a 30 mM solution of 2,3-butanedione monoxime (BDM) (Sigma) in media for 5-10 min to eliminate contractions to reduce the effect of contractile status on tissue stiffness. Pressure was applied to the organoid surface and pictures were recorded until reaching equilibrium deformation (about 5 min) (FIG. 2F). Under the homogeneous half-space model assumptions^23, the change in length (L) from pre-deformation to equilibrium deformation was used to calculate the elastic modulus according the previously established relationship: E=3aΔp/2πL Φ(η), where E is elastic modulus, a is the inner micropipette radius, Δp is the applied pressure, Φ( ) is the wall function (under punch model assumptions), and η is the wall parameter.^24,25

[9] = 10 nM added to infarct organoid culture
[10] = 20 ng/ml added during infarction protocol

Molecule: VEGF
unsynchronized beating of infarct organoids ([1]; 2 ng/ml): reduction of unsynchronization

dose inducing an increase in vimentin+ density [2]: 1.0 µM
dose inducing an increase in vimentin+ density ([4]; infarct organoids, 48 hrs of exposure): 0.1 µM
αSA staining relative to vehicle control (sarcomeric organization) ([4]; interior of infarct organoids, 0.1 μM): significantly decreases
concentration at cessation of beating [5]: 10 µM
pIC50 ([5]; Homo sapiens, 48 hrs of exposure starting on D10): ~6.43
pIC50 ([7]; Homo sapiens, infarct organoids, 48 hrs of exposure starting on D10): ~6.82
concentration at cessation of beating ([7]; infarct organoids): 1 µM
Molecule: COc1cccc2c1C(=O)c1c(O)c3c(c(O)c1C2=O)C[C@@](O)(C(=O)CO)C[C@@H]3O[C@H]1C[C@H](N)[C@H](O)[C@H](C)O1 [DOX, doxorubicin]
viability and contractile structures/organization of 2D hiPSC-CMs [3]: exacerbation of DOX-induced reduction in viability and reduction in contractile structures/organization
apoptosis (TUNEL analysis) [6]: significantly increased apoptosis

Molecule: Cc1sc2c(c1C)C(c1ccc(Cl)cc1)=N[C@@H](CC(=O)OC(C)(C)C)c1nnc(C)n1-2 [JQ1]
organoid stiffness (elastic modulus) [8, 9]: significant decrease in stiffness
unsynchronized beating of infarct organoids ([1]; 10 nM): reduction of unsynchronization
vimentin+ density at the infarct organoid edge [4, 9]: significantly reduced

Molecule: NC[C@H](O)c1ccc(O)c(O)c1 [NE, norepinephrine]
beat rate ([7]; 10% O2 with 1 μM for 10 days, versus control organoids): increase in beat rate

Molecule: COCCc1ccc(OCC(O)CNC(C)C)cc1 (centres unmarked) [metoprolol]
NE-induced increase in beat rate ([7]; infarct organoids cultured with 10 μM, D10): reversed

Molecule: TGF-β1: human recombinant transforming growth factor beta 1, pro-fibrotic stimulus
organoid stiffness (elastic modulus) [8, 10]: significant increase in organoid stiffness
collagen organization and presence of αSMA+ myofibroblast-like cells [4, 10]: further increased
